Assay results as given in patent US9115092B2, “Substituted quinazoline and pyrido-pyrimidine derivatives” (Asana Biosciences, LLC, priority 2010, dated 2015).

Assays:
[1] = target: T1, PI3Kα (wild-type), P110/P85α (Homo sapiens, UniProt P42336); test: PI3 Kinase TR-FRET assay, PI3Kα (wild-type); type: biochemical
T1 construct: made in house; host or cells: SF9 insect cells
In short: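 TR-FRET read-out of PIP3 formation via biotin-PIP3 displacement (665/615 nm ratio) gave IC50 curves. Enzyme: 5 ng wild-type P110/P85α from Sf9 cells, 60 min RT with compound and PIP2 (MgCl2 40 mM, DTT 5 mM), then 30 min RT kinase reaction at 10 μM ATP and 10 μM PIP2.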

mTOR kinase = target: T2, mTOR kinase (Homo sapiens, UniProt P42345); test: mTOR kinase TR-FRET assay; type: biochemical; conditions: read-out: mTO R
T2 construct: purchased Millipore, USA
In short: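 TR-FRET read-out (340 nm excitation, 615/665 nm emission) of Thr389 phosphorylation of a ULight-labeled p70 S6K peptide (50 nM) by mTOR, 20 μM ATP, 60 min room temperature after 60 min compound preincubation. Buffer HEPES pH 7.5 with MnCl2, EGTA; IC50 by sigmoidal dose-response.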

T1 sequence (P42336 whole entry): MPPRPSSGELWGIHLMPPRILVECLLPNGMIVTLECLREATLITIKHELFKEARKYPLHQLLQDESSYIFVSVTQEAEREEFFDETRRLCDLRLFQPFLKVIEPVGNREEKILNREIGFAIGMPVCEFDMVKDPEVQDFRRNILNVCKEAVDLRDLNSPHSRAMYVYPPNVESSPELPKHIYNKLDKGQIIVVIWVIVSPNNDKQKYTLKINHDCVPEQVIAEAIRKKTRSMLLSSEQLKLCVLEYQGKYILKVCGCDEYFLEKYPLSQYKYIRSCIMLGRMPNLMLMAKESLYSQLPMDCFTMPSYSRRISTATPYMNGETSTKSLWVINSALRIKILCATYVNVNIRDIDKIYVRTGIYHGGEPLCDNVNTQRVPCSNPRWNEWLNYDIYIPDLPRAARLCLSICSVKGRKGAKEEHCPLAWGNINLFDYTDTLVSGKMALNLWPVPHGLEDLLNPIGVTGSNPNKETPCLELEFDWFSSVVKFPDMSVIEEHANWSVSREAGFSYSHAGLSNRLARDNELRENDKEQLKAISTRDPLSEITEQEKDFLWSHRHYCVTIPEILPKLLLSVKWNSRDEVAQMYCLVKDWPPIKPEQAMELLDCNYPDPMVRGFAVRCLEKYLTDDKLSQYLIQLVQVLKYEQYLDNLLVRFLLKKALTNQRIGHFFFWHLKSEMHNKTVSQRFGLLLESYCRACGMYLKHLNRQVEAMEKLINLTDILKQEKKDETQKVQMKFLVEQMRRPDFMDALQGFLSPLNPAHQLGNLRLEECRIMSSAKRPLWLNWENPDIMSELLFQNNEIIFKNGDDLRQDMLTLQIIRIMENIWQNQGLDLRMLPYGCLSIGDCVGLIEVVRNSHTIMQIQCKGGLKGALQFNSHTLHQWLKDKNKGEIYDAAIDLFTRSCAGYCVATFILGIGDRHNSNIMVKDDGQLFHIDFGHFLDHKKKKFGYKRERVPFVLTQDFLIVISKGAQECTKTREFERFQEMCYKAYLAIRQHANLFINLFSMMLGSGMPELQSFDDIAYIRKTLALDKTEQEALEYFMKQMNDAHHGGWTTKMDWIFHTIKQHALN
T1 sequence (P27986 whole entry partner): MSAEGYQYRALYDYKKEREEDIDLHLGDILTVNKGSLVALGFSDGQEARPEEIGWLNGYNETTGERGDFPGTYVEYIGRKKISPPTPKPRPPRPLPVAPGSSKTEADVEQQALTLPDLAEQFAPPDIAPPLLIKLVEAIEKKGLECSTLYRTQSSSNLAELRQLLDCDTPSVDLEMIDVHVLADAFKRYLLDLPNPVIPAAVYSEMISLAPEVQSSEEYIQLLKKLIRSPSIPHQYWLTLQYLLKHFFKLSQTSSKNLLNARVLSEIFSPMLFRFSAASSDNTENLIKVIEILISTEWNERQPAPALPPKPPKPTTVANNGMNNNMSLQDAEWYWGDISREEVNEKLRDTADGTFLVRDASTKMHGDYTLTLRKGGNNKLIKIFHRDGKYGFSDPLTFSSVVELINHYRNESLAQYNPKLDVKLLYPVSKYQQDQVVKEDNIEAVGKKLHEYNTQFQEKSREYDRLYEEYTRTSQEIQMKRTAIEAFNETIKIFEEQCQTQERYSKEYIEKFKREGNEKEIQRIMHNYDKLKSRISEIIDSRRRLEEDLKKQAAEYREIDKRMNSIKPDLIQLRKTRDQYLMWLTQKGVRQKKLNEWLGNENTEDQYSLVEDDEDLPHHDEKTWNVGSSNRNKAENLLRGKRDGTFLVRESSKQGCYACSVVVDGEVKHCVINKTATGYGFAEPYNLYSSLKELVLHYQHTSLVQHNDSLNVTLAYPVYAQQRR

Row | SMILES | IC50 [1] [nM] | IC50 (mTOR kinase) [nM]
1 | CN(C)C(=O)c1ccc(NC(=O)Nc2ccc(-c3nc(N4CCOCC4)c4ccc(-c5ccco5)cc4n3)cc2)c(Cl)c1 [Example 171, 3-chloro-4-(3-(4-(7-(furan-2-yl)-4-morpholino-quinazolin-2-yl)phenyl)ureido)-N,N-dimethyl-benzamide] | 201 to 10000 | 201 to 10000
2 | CN(C)C(=O)c1ccc(NC(=O)Nc2ccc(-c3nc(N4CCOCC4)c4ccc(-c5cnn(C)c5)cc4n3)cn2)c(F)c1 [Example 172, 3-fluoro-N,N-dimethyl-4-(3-(5-(7-(1-methyl-1H-pyrazol-4-yl)-4-morpholino-quinazolin-2-yl)pyridin-2-yl)ureido)-benzamide] | < 50 | 201 to 10000
3 | CN(C)C(=O)c1ccc(NC(=O)Nc2ccc(-c3nc(N4CCOCC4)c4cc(F)c(-c5cccnc5)cc4n3)cc2)c(F)c1 [Example 173, 3-fluoro-4-(3-(4-(6-fluoro-4-morpholino-7-(pyridin-3-yl)quinazolin-2-yl)phenyl)ureido)-N,N-dimethyl-benzamide] | < 50 | < 50
4 | CN(C)C(=O)c1ccc(NC(=O)Nc2ccc(-c3nc(N4CCOCC4)c4cc(F)c(-c5cncnc5)cc4n3)cc2)c(F)c1 [Example 174, 3-fluoro-4-(3-(4-(6-fluoro-4-morpholino-7-(pyrimidin-5-yl)quinazolin-2-yl)phenyl)ureido)-N,N-dimethyl-benzamide] | 50 to 200 | < 50
5 | CN(C)C(=O)c1ccc(NC(=O)Nc2ccc(-c3nc(N4CCOCC4)c4cc(F)c(-c5cccnc5)cc4n3)cn2)cc1 [Example 175, 4-(3-(5-(6-fluoro-4-morpholino-7-(pyridin-3-yl)quinazolin-2-yl)pyridin-2-yl)ureido)-N,N-dimethyl-benzamide] | < 50 | 50 to 200
6 | CN(C)C(=O)c1ccc(NC(=O)Nc2ccc(-c3nc(N4CCOCC4)c4cc(F)c(-c5cncnc5)cc4n3)cn2)cc1 [Example 176, 4-(3-(5-(6-fluoro-4-morpholino-7-(pyrimidin-5-yl)quinazolin-2-yl)pyridin-2-yl)ureido)-N,N-dimethyl-benzamide] | < 50 | 50 to 200
7 | CN(C)C(=O)c1ccc(NC(=O)Nc2ccc(-c3nc(N4CCOCC4)c4ccc(-c5ccc(N)nc5)cc4n3)cc2)cc1 [Example 177, 4-(3-(4-(7-(6-aminopyridin-3-yl)-4-morpholino-quinazolin-2-yl)phenyl)ureido)-N,N-dimethyl-benzamide] | < 50 | < 50
8 | CN(C)C(=O)c1ccc(NC(=O)Nc2ccc(-c3nc(N4CCOCC4)c4ccc(-c5ccc(N)nc5)cc4n3)cc2)c(F)c1 [Example 178, 4-(3-(4-(7-(6-aminopyridin-3-yl)-4-morpholino-quinazolin-2-yl)phenyl)ureido)-3-fluoro-N,N-dimethyl-benzamide] | 50 to 200 | < 50
9 | COc1ccc2c(N3CCOCC3)nc(-c3ccc(NC(=O)Nc4ccc(C(=O)N(C)C)cc4)c(F)c3)nc2c1 [Example 182, 4-(3-(2-fluoro-4-(7-methoxy-4-morpholino-quinazolin-2-yl)phenyl)ureido)-N,N-dimethyl-benzamide] | 50 to 200 | < 50
10 | CN(C)CCNC(=O)c1ccc(NC(=O)Nc2ccc(-c3nc(N4CCOCC4)c4ccc(-c5cncnc5)cc4n3)cc2)cc1 [Example 192, N-(2-(dimethylamino)ethyl)-4-(3-(4-(4-morpholino-7-(pyrimidin-5-yl)quinazolin-2-yl)phenyl)ureido)-benzamide] | 50 to 200 | < 50
11 | CN1CCN(C(=O)c2ccc(NC(=O)Nc3ccc(-c4nc(N5CCOCC5)c5ccc(-c6ccncc6)cc5n4)cc3F)cc2)CC1 [Example 212, 1-(2-fluoro-4-(4-morpholino-7-(pyridin-4-yl)quinazolin-2-yl)phenyl)-3-(4-(4-methylpiperazine-1-carbonyl)phenyl)urea] | 50 to 200 | 50 to 200
12 | CN(C)C(=O)c1ccc(NC(=O)Nc2ccc(-c3nc(N4CCOCC4)c4ncc(-c5ccc(CO)o5)cc4n3)cc2F)cc1 [Example 218, 4-(3-(2-fluoro-4-(7-(5-(hydroxymethyl)furan-2-yl)-4-morpholino-pyrido[3,2-d]pyrimidin-2-yl)phenyl)ureido)-N,N-dimethyl-benzamide] | < 50 | 50 to 200
13 | CN(C)C(=O)c1ccc(NC(=O)Nc2ccc(-c3nc(N4CCOCC4)c4ccc(-c5ccc(CO)o5)cc4n3)cc2)c(F)c1 [Example 219, 3-fluoro-4-(3-(4-(7-(5-(hydroxymethyl)furan-2-yl)-4-morpholino-quinazolin-2-yl)phenyl)ureido)-N,N-dimethyl-benzamide] | 50 to 200 | 50 to 200
14 | CN(C)CCNC(=O)c1ccc(-c2ccc3c(N4CCOCC4)nc(-c4ccc(NC(=O)Nc5ccc(C(=O)N(C)C)cc5)cc4)nc3c2)o1 [Example 225, N-(2-(dimethylamino)ethyl)-5-(2-(4-(3-(4-(dimethylcarbamoyl)phenyl)ureido)phenyl)-4-morpholino-quinazolin-7-yl)furan-2-carboxamide] | 50 to 200 | < 50
15 | CC(O)c1ccc(-c2ccc3c(N4CCOCC4)nc(-c4ccc(NC(=O)Nc5ccc(C(=O)N(C)C)cc5F)cc4)nc3c2)o1 (stereo not shown) [Example 227, 3-fluoro-4-(3-(4-(7-(5-(1-hydroxyethyl)furan-2-yl)-4-morpholino-quinazolin-2-yl)phenyl)ureido)-N,N-dimethyl-benzamide] | 201 to 10000 | 50 to 200
16 | CN(C)C(=O)c1ccc(NC(=O)Nc2ccc(-c3nc(N4CCOCC4)c4ccc(-c5ccc(C(=O)N(C)C)o5)cc4n3)cc2)cc1 [Example 229, 5-(2-(4-(3-(4-(dimethylcarbamoyl)phenyl)ureido)phenyl)-4-morpholine-quinazolin-7-yl)-N,N-dimethylfuran-2-carboxamide] | < 50 | < 50
17 | CN(C)C(=O)c1ccc(NC(=O)Nc2ccc(-c3nc(N4CCOCC4)c4ncc(-c5cnc(N(C)C)nc5)cc4n3)cc2)cc1 [Example 230, 4-(3-(4-(7-(2-(dimethylamino)pyrimidin-5-yl)-4-morpholino-pyrido[3,2-d]pyrimidin-2-yl)phenyl)ureido)-N,N-dimethyl-benzamide] | < 50 | < 50
18 | CN(C)C(=O)c1ccc(NC(=O)Nc2ccc(-c3nc(N4CCOCC4)c4ccc(-c5cnc(N(C)C)nc5)cc4n3)cc2F)cc1 [Example 231, 4-(3-(4-(7-(2-(dimethylamino)pyrimidin-5-yl)-4-morpholino-quinazolin-2-yl)-2-fluorophenyl)ureido)-N,N-dimethyl-benzamide] | 50 to 200 | < 50
19 | O=C(Nc1ccc(C(=O)N2CCC(O)C2)cc1)Nc1ccc(-c2nc(N3CCOCC3)c3ccc(-c4ccco4)cc3n2)cc1 (stereo not shown) [Example 232, 1-(4-(7-(furan-2-yl)-4-morpholino-quinazolin-2-yl)phenyl)-3-(4-(3-hydroxypyrrolidine-1-carbonyl)phenyl)urea] | < 50 | < 50
20 | CN(C)CCNC(=O)c1ccc(NC(=O)Nc2ccc(-c3nc(N4CCOCC4)c4ccc(-c5ccco5)cc4n3)cc2)cc1 [Example 235, N-(2-(dimethylamino)ethyl)-4-(3-(4-(7-(furan-2-yl)-4-morpholino-quinazolin-2-yl)phenyl)ureido)-benzamide] | < 50 | < 50
21 | CN(C)CCN(C)C(=O)c1ccc(NC(=O)Nc2ccc(-c3nc(N4CCOCC4)c4ccc(-c5ccco5)cc4n3)cc2)cc1 [Example 236, N-(2-(dimethylamino)ethyl)-4-(3-(4-(7-(furan-2-yl)-4-morpholino-quinazolin-2-yl)phenyl)ureido)-N-methyl-benzamide] | < 50 | < 50
22 | Cc1ccc(-c2ccc3c(N4CCOCC4)nc(-c4ccc(NC(=O)Nc5ccc(C(=O)N(C)C)cc5)cc4F)nc3c2)o1 [Example 239, 4-(3-(3-fluoro-4-(7-(5-methylfuran-2-yl)-4-morpholino-quinazolin-2-yl)phenyl)ureido)-N,N-dimethyl-benzamide] | 50 to 200 | 50 to 200
23 | CN(C)C(=O)c1ccc(NC(=O)Nc2ccc(-c3nc(N4CCOCC4)c4ncc(-c5cccnc5F)cc4n3)cc2)cc1F [Example 248, 2-fluoro-4-(3-(4-(7-(2-fluoropyridin-3-yl)-4-morpholino-pyrido[3,2-d]pyrimidin-2-yl)phenyl)ureido)-N,N-dimethyl-benzamide] | < 50 | < 50
24 | CN(C)C(=O)c1ccc(NC(=O)Nc2ccc(-c3nc(N4CCOCC4)c4ccc(-c5cnn(C)c5)cc4n3)c(F)c2)cc1 [Example 249, 4-(3-(3-fluoro-4-(7-(1-methyl-1H-pyrazol-4-yl)-4-morpholino-quinazolin-2-yl)phenyl)ureido)-N,N-dimethyl-benzamide] | 50 to 200 | < 50
25 | CN(C)C(=O)c1ccc(NC(=O)Nc2ccc(-c3nc(N4CCOCC4)c4ccc(-c5cncnc5)cc4n3)c(F)c2)cn1 [Example 251, 5-(3-(3-fluoro-4-(4-morpholino-7-(pyrimidin-5-yl)quinazolin-2-yl)phenyl)ureido)-N,N-dimethylpicolinamide] | 201 to 10000 | < 50
26 | Cc1noc(C)c1-c1ccc2c(N3CCOCC3)nc(-c3ccc(NC(=O)Nc4ccc(C(=O)N(C)C)cc4)cc3F)nc2c1 [Example 252, 4-(3-(4-(7-(3,5-dimethylisoxazol-4-yl)-4-morpholino-quinazolin-2-yl)-3-fluorophenyl)ureido)-N,N-dimethyl-benzamide] | 50 to 200 | 50 to 200
